Experimental data reported in ChEMBL document CHEMBL2440076, “New triarylpyrazoles as broad-spectrum anticancer agents: design, synthesis, and biological evaluation” (Eur J Med Chem, 2013).

Key:
Type in all cases: functional
OVCAR-8 = test: Growth inhibition of human OVCAR8 cells assessed as cell growth at 3X10'-7 M after 48 hrs by sulforhodamine B assay; details: OVCAR-8, 48 h, read-out: Activity
OVCAR-5 [1] = test: Growth inhibition of human OVCAR5 cells assessed as cell growth at 3X10'-7 M after 48 hrs by sulforhodamine B assay; details: OVCAR-5, 48 h, read-out: Activity
HCT-116 = test: Growth inhibition of human HCT116 cells assessed as cell growth at 3X10'-7 M after 48 hrs by sulforhodamine B assay; details: HCT-116, 48 h, read-out: Activity
A549 [2] = test: Growth inhibition of human A549/ATCC cells assessed as cell growth at 3X10'-7 M after 48 hrs by sulforhodamine B assay; details: A549, 48 h, read-out: Activity
CCRF-CEM = test: Growth inhibition of human CCRF-CEM cells assessed as cell growth at 3X10'-7 M after 48 hrs by sulforhodamine B assay; details: read-out: Activity
MDA-MB-468 [3] = test: Growth inhibition of human MDA-MB-468 cells assessed as cell growth at 3X10'-8 M after 48 hrs by sulforhodamine B assay; details: MDA-MB-468, 48 h, read-out: Activity
[4] = Growth inhibition of human Hs 578T cells assessed as cell growth at 3X10'-8 M after 48 hrs by sulforhodamine B assay; details: read-out: Activity
DU-145 = test: Growth inhibition of human DU145 cells assessed as cell growth at 3X10'-8 M after 48 hrs by sulforhodamine B assay; details: DU-145, 48 h, read-out: Activity
SN12C [5] = test: Growth inhibition of human SN12C cells assessed as cell growth at 3X10'-8 M after 48 hrs by sulforhodamine B assay; details: read-out: Activity
SK-OV-3 [6] = test: Growth inhibition of human SKOV3 cells assessed as cell growth at 3X10'-8 M after 48 hrs by sulforhodamine B assay; details: SK-OV-3, 48 h, read-out: Activity
MDA-MB-468 [7] = test: Growth inhibition of human MDA-MB-468 cells assessed as cell growth at 3X10'-5 M after 48 hrs by sulforhodamine B assay; details: MDA-MB-468, 48 h, read-out: Activity
[8] = Growth inhibition of human Hs 578T cells assessed as cell growth at 3X10'-5 M after 48 hrs by sulforhodamine B assay; details: read-out: Activity
OVCAR-3 [9] = test: Growth inhibition of human OVCAR3 cells assessed as cell growth at 3X10'-8 M after 48 hrs by sulforhodamine B assay; details: OVCAR-3, 48 h, read-out: Activity
IGROV-1 = test: Growth inhibition of human IGROV1 cells assessed as cell growth at 3X10'-8 M after 48 hrs by sulforhodamine B assay; details: IGROV-1, 48 h, read-out: Activity
UACC-62 = test: Growth inhibition of human UACC62 cells assessed as cell growth at 3X10'-8 M after 48 hrs by sulforhodamine B assay; details: UACC-62, 48 h, read-out: Activity
SF-295 = test: Growth inhibition of human SF295 cells assessed as cell growth at 3X10'-8 M after 48 hrs by sulforhodamine B assay; details: SF-295, 48 h, read-out: Activity
SF-268 = test: Growth inhibition of human SF268 cells assessed as cell growth at 3X10'-8 M after 48 hrs by sulforhodamine B assay; details: SF-268, 48 h, read-out: Activity
RPMI-8226 = test: Growth inhibition of human RPMI8226 cells assessed as cell growth at 3X10'-8 M after 48 hrs by sulforhodamine B assay; details: RPMI-8226, 48 h, read-out: Activity
MDA-MB-468 [10] = test: Growth inhibition of human MDA-MB-468 cells assessed as cell growth at 3X10'-9 M after 48 hrs by sulforhodamine B assay; details: MDA-MB-468, 48 h, read-out: Activity
SN12C [11] = test: Growth inhibition of human SN12C cells assessed as cell growth at 3X10'-5 M after 48 hrs by sulforhodamine B assay; details: read-out: Activity
SK-OV-3 [12] = test: Growth inhibition of human SKOV3 cells assessed as cell growth at 3X10'-5 M after 48 hrs by sulforhodamine B assay; details: SK-OV-3, 48 h, read-out: Activity
SN12C [13] = test: Growth inhibition of human SN12C cells assessed as cell growth at 3X10'-9 M after 48 hrs by sulforhodamine B assay; details: read-out: Activity
786-0 = test: Growth inhibition of human 786-0 cells assessed as cell growth at 3X10'-9 M after 48 hrs by sulforhodamine B assay; details: 786-0, 48 h, read-out: Activity
OVCAR-5 [14] = test: Growth inhibition of human OVCAR5 cells assessed as cell growth at 3X10'-9 M after 48 hrs by sulforhodamine B assay; details: OVCAR-5, 48 h, read-out: Activity
OVCAR-3 [15] = test: Growth inhibition of human OVCAR3 cells assessed as cell growth at 3X10'-5 M after 48 hrs by sulforhodamine B assay; details: OVCAR-3, 48 h, read-out: Activity
A549 [16] = test: Growth inhibition of human A549/ATCC cells assessed as cell growth at 3X10'-5 M after 48 hrs by sulforhodamine B assay; details: A549, 48 h, read-out: Activity
UACC-257 = test: Growth inhibition of human UACC257 cells assessed as cell growth at 3X10'-9 M after 48 hrs by sulforhodamine B assay; details: UACC-257, 48 h, read-out: Activity
SK-MEL-2 = test: Growth inhibition of human SK-MEL-2 cells assessed as cell growth at 3X10'-9 M after 48 hrs by sulforhodamine B assay; details: SK-MEL-2, 48 h, read-out: Activity
M14 = test: Growth inhibition of human M14 cells assessed as cell growth at 3X10'-9 M after 48 hrs by sulforhodamine B assay; details: M14, 48 h, read-out: Activity
Malme-3M = test: Growth inhibition of human MALME-3M cells assessed as cell growth at 3X10'-9 M after 48 hrs by sulforhodamine B assay; details: read-out: Activity
NCI-H522 = test: Growth inhibition of human NCI-H522 cells assessed as cell growth at 3X10'-9 M after 48 hrs by sulforhodamine B assay; details: NCI-H522, 48 h, read-out: Activity
HOP-62 = test: Growth inhibition of human HOP62 cells assessed as cell growth at 3X10'-9 M after 48 hrs by sulforhodamine B assay; details: HOP-62, 48 h, read-out: Activity
CAKI-1 = test: Growth inhibition of human CAKI-1 cells assessed as cell growth at 3X10'-6 M after 48 hrs by sulforhodamine B assay; details: CAKI-1, 48 h, read-out: Activity
SNB-75 = test: Growth inhibition of human SNB75 cells assessed as cell growth at 3X10'-6 M after 48 hrs by sulforhodamine B assay; details: SNB-75, 48 h, read-out: Activity
NCI-H322M = test: Growth inhibition of human NCI-H322M cells assessed as cell growth at 3X10'-6 M after 48 hrs by sulforhodamine B assay; details: read-out: Activity
MOLT-4 = test: Growth inhibition of human MOLT4 cells assessed as cell growth at 3X10'-6 M after 48 hrs by sulforhodamine B assay; details: MOLT-4, 48 h, read-out: Activity
TK-10 = test: Growth inhibition of human TK10 cells assessed as cell growth at 3X10'-7 M after 48 hrs by sulforhodamine B assay; details: TK-10, 48 h, read-out: Activity

## COc1cc(-c2nn(-c3cccc(NC(=O)Nc4ccc(Cl)c(C(F)(F)F)c4)c3)cc2-c2ccncc2)ccc1Cl
OVCAR-8
  growth at 0.3 µM: 97%
OVCAR-5 [1]
  growth at 0.3 µM: 89%
HCT-116
  growth at 0.3 µM: 99%
A549 [2]
  growth at 0.3 µM: 89%
CCRF-CEM
  growth at 0.3 µM: 93%
MDA-MB-468 [3]
  growth at 0.03 µM: 90%
[4]
  growth at 0.03 µM: 89%
DU-145
  growth at 0.03 µM: 105%
SN12C [5]
  growth at 0.03 µM: 94%
SK-OV-3 [6]
  growth at 0.03 µM: 104%
MDA-MB-468 [7]
  growth at 30 µM: -38%
[8]
  growth at 30 µM: -8%
OVCAR-3 [9]
  growth at 0.03 µM: 109%
IGROV-1
  growth at 0.03 µM: 102%
UACC-62
  growth at 0.03 µM: 94%
SF-295
  growth at 0.03 µM: 90%
SF-268
  growth at 0.03 µM: 103%
RPMI-8226
  growth at 0.03 µM: 97%
MDA-MB-468 [10]
  growth at 0.003 µM: 101%
SN12C [11]
  growth at 30 µM: -19%
SK-OV-3 [12]
  growth at 30 µM: -14%
SN12C [13]
  growth at 0.003 µM: 95%
786-0
  growth at 0.003 µM: 101%
OVCAR-5 [14]
  growth at 0.003 µM: 99%
OVCAR-3 [15]
  growth at 30 µM: -46%
A549 [16]
  growth at 30 µM: -5%
UACC-257
  growth at 0.003 µM: 94%
SK-MEL-2
  growth at 0.003 µM: 111%
M14
  growth at 0.003 µM: 106%
Malme-3M
  growth at 0.003 µM: 112%
NCI-H522
  growth at 0.003 µM: 106%
HOP-62
  growth at 0.003 µM: 95%
CAKI-1
  growth at 3 µM: 4%
SNB-75
  growth at 3 µM: 24%
NCI-H322M
  growth at 3 µM: 29%
MOLT-4
  growth at 3 µM: 9%
TK-10
  growth at 0.3 µM: 101%

## O=C(Nc1cccc(-n2cc(-c3ccncc3)c(-c3ccc(Cl)c(O)c3)n2)c1)Nc1cccc(C(F)(F)F)c1
OVCAR-8
  growth at 0.3 µM: 91%
OVCAR-5 [1]
  growth at 0.3 µM: 105%
HCT-116
  growth at 0.3 µM: 98%
A549 [2]
  growth at 0.3 µM: 93%
CCRF-CEM
  growth at 0.3 µM: 94%
MDA-MB-468 [3]
  growth at 0.03 µM: 89%
[4]
  growth at 0.03 µM: 91%
DU-145
  growth at 0.03 µM: 99%
SN12C [5]
  growth at 0.03 µM: 98%
SK-OV-3 [6]
  growth at 0.03 µM: 96%
MDA-MB-468 [7]
  growth at 30 µM: -27%
[8]
  growth at 30 µM: 11%
OVCAR-3 [9]
  growth at 0.03 µM: 93%
IGROV-1
  growth at 0.03 µM: 98%
UACC-62
  growth at 0.03 µM: 96%
SF-295
  growth at 0.03 µM: 99%
SF-268
  growth at 0.03 µM: 94%
RPMI-8226
  growth at 0.03 µM: 98%
MDA-MB-468 [10]
  growth at 0.003 µM: 95%
SN12C [11]
  growth at 30 µM: 16%
SK-OV-3 [12]
  growth at 30 µM: 15%
SN12C [13]
  growth at 0.003 µM: 98%
786-0
  growth at 0.003 µM: 98%
OVCAR-5 [14]
  growth at 0.003 µM: 95%
OVCAR-3 [15]
  growth at 30 µM: -25%
A549 [16]
  growth at 30 µM: 11%
UACC-257
  growth at 0.003 µM: 96%
SK-MEL-2
  growth at 0.003 µM: 93%
M14
  growth at 0.003 µM: 97%
Malme-3M
  growth at 0.003 µM: 96%
NCI-H522
  growth at 0.003 µM: 95%
HOP-62
  growth at 0.003 µM: 97%
CAKI-1
  growth at 3 µM: 35%
SNB-75
  growth at 3 µM: 53%
NCI-H322M
  growth at 3 µM: 63%
MOLT-4
  growth at 3 µM: 36%
TK-10
  growth at 0.3 µM: 107%
